# Values quoted from earlier work as cited in patent publication US11571414B2, “Methods of treating respiratory illnesses, alleviating inflammation and visceral pain, and alleviating opioid addiction while suppressing withdrawal symptoms” (priority 2019, dated 2023).
# Test system: μ-opioid receptor and the nociception receptor
# Details: nonhuman primates
compound,measurement,value
CC(C)C1CCC(N2CCC3(CC2)C(=O)N(CCNS(N)(=O)=O)Cc2ccccc23)CC1 (centres unmarked) [AT-121],addictive effects,suppresses the addictive effects
same,analgesic effects,morphine-like analgesic effects
